Results reported in patent US10815275B2, “Antimicrobial peptoids with improved selectivity and use thereof” (priority 2018, dated 2020).
Non-standard residues stand in square brackets, D forms with d. Residues, ends and D or L forms follow the SMILES beside them. Nspe = C[C@H](NCC(=O)O)c1ccccc1; Nlys = NCCCCNCC(=O)O

Columns and labels:
[1] = tested on: S. epidermidis (ET-024 MRSA); test: MIC in multidrug-resistant bacteria panel, modified microdilution; format: cell-based; conditions: overnight, 37° C.
Method: (§1) Minimum inhibitory concentrations of the prepared peptoids for multidrug-resistant bacteria were measured using a modified microdilution method in Difco Mueller Hinton medium, and tests were done on a panel of bacterial pathogens which have resistance and tolerance against common antibiotics.
(§2) Briefly, a peptoid concentrate, which is 10-fold more concentrated than a final concentration, was serially diluted with a medium containing 0.2% bovine serum albumin and 0.01% acetic acid. 10 μL of the 10-fold concentrated peptoid concentrate and 90 μL of Muller Hinton medium were added to each well of a 96-well polypropylene microtitre plate. Bacteria were added to the plate so that a final concentration thereof was 2×10^5 CFU/mL, and then incubated overnight at a temperature of 37° C. The minimum inhibitory concentration was defined as a concentration at which no bacterial growth is observed.

[2] = tested on: E. coli (63103 ESBL); test: as above; format: cell-based; conditions: overnight, 37° C.
Method: as §1, §2

[3] = tested on: S. aureus (ATCC25923); test: as above; format: cell-based; conditions: overnight, 37° C.
Method: as §1, §2

[4] = in vitro; format: cell-based; conditions: concentration indicating 50% survival, 24 h, MTS; read-out: LC50
In short: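 Human lung […] cells, 1.3×10^4 per well in DMEM with 10% FBS, incubated overnight, then treated 24 h with 2-fold serially diluted peptoid at 37° C, 5% CO2. MTS added for 4 hours, absorbance 490 nm; % survival relative to untreated control cells.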

[5] = tested on: E. coli; test: Selectivity analysis, HD10 divided by MIC for E. coli; conditions: HD10 of Table 6 divided by MIC for E. coli ATCC25922
Method: In order to identify changes in selectivity depending on alteration of degree of folding in helical structure of peptoids, selectivity of each peptoid was calculated using the resultant values measured in the Experimental Examples 1 and 2. The selectivity was obtained by dividing the HD10 value by the minimum inhibitory concentration for E. coli (Table 8).

Compound: C[C@@H](c1ccccc1)N(CC(N)=O)C(=O)CN(C(=O)CN(CCCCN)C(=O)CN(C(=O)CN(C(=O)CN(CCCCN)C(=O)CN(C(=O)CN(C(=O)CN(CCCCN)C(=O)CN(C(=O)CN(C(=O)CNCCCCN)[C@@H](C)c1ccccc1)[C@@H](C)c1ccccc1)[C@@H](C)c1ccccc1)[C@@H](C)c1ccccc1)[C@@H](C)c1ccccc1)[C@@H](C)c1ccccc1)[C@@H](C)c1ccccc1 [compound 1] (H-[Nlys][Nspe][Nspe][Nlys][Nspe][Nspe][Nlys][Nspe][Nspe][Nlys][Nspe][Nspe]-NH2)
- minimum inhibitory concentration S. epidermidis (ET-024 MRSA) [1]: <0.8 to 0.8
- minimum inhibitory concentration E. coli (63103 ESBL) [2]: 1.6
- minimum inhibitory concentration S. aureus (ATCC25923) [3]: 1.6
- CC50 at 24 h [4]: 8 µM
- Selectivity [HD10/MIC (E. coli)] [5]: 0.4
